Laboratory results taken from patent US9808434B2, “Compound for treating cancer and diabetes” (CITY OF HOPE, priority 2011, dated 2017).
Entries after “also recorded” stand apart in the source; their conditions may differ.

Legend:
AMPK = AMPK activation in Hela cells, Western blot; type: cell-based; details: 1 hour, 1, 3 or 5 μM
Description: Activation of AMPK was associated with the phosphorylation of the α-subunit on Thr-172 of as assessed using phospho-specific antibodies (FIGS. 10A-B). AMPK activation also leads to the increased phosphorylation of the target protein acetyl-CoA carboxylase (ACC) (FIG. 10B).
Cells of each cell lines (Hela, HL-60, and 3T3-L1) were treated for 1 hour with a test compound (COH-SR4, COH-SR9, COH-SR16, or COH-SR18) at a concentration of 1 μM, 3 μM, or 5 μM, or AICAR (5-aminoimidazole-4-carboxamideriboside, an AMPK agonist used as positive control) at a concentration of 500 μM, or none of the above (the untreated cells as negative control). Total cell lysates from the untreated cells and the cells treated with a test compound or AICAR were analyzed by Western blot assay using specific antibodies against phospho-AMPK, phospho-ACC, total AMPK and total ACC.

HL-60 cells [1] = assay: Differentiation of HL-60 cells (Giemsa-Wright, NBT, CD11b/CD14); type: cell-based, human; details: 48 hours; for surface expression of CD11b and CD14: 0.5-3 μM, flow cytometry; for morphologic changes (Giemsa-Wright stain), myeloid differentiation: 2-10 μM
Description: HL-60 cells were incubated with a test compound at various concentrations (2˜10 μM), DMSO, or without any test compound for 48 hours, and then examined for morphologic changes by Giemsa-Wright stain. The results were observed microscopically and shown in FIG. 13 at a magnification of ×400. […] Such results were similar to cells treated with DMSO or all-trans retinoic acid (ATRA), wherein DMSO or ATRA terminally differentiated HL-60 cells into myeloid cells (FIG. 13).
HL-60 cells (2.5×10^5) were treated with or without a test compound for 48 hours and then stained with NBT, wherein positively-stained cells appeared as purple black (FIG. 14A). NBT positive cells were counted and the overall percentage was calculated based on 200 total cells counted for each treatment. Three˜four independent experiments were carried out, and data are shown as mean±SE (FIG. 14B). This measurement of “oxidative burst” by the NBT assay is a well-known and extensively tested functional marker of HL-60 cell differentiation.
HL-60 cells (2.5×10^5) were incubated with a test compound (COH-SR4 or COH-SR9) at a concentration of 0.5 μM, 1 μM, 2 μM, or 3 μM, or without any COH-SR compound for 48 hours and then assessed for the surface expression of CD11b (FIG. 14C) and CD14 (FIG. 14D) by flow cytometry, respectively. Three-four independent experiments were carried out, and data are shown as mean±SE (FIGS. 14C and 14D).

HL-60 cells [2] = assay: HL-60 cell cycle, PI flow cytometry; type: cell-based, human; details: for cells in the S phase: 3 μM, control 47%; for viable cells arrested in G0/G1 phase: 48-hour treatment
Description: HL-60 cells (1×10^6) were incubated with a test compound (COH-SR4 or COH-SR9) at various concentrations (0.5˜3 μM) for 48 hours, washed and harvested. The cells were then fixed and stained with propodium iodide (P1) and the DNA content was analyzed by flow cytometry. Results of each figure were from 3-4 independent experiments. The cell number in each cell cycle phase was calculated and expressed as overall percentage (FIG. 15A). The percentage of cells in G0/G1 were measured from 0-48-hour treatment with test compounds (FIG. 15B), data expressed as mean±SE.

HL-60 cells [3] = assay: HL-60 apoptosis markers (DNA ladder, DiOC6(3), caspases, cytochrome c, PARP); type: cell-based, human; details: for DiOC6(3) fluorescence (mitochondrial depolarization): 4 hours; for cytochrome c release and PARP: 24 hours; for cytochrome c release and PARP / caspase 3/7 and caspase 9 activity: 0.5-3 μM; for caspase 3/7 and caspase 9 activity: 48 hours; for DNA fragmentation (DNA ladder): agarose gel
Description: DNA was stained with ethidium bromide after electrophoresis on 1.5% agarose gel and then visualized under UV light.
To test whether mitochondrial membrane disruption was involved in the apoptotic effects of COH-SR4 and COH-SR9, fluorescent cationic lipophilic dye DiOC6(3) was used and monitored using flow cytometry. HL-60 cells were exposed to various concentrations of COH-SR4 or COH-SR9 for 4 hours. After incubation, cells were rinsed and stained with the cationic fluorescent dye DiOC6(3) and then the overall fluorescence was analyzed by flow cytometry. […] Reduction of the fluorescence intensity of DiOC6(3) is indicative of the cells undergoing mitochondrial depolarization and loss of Δψmt. This effect, which has been commonly observed with other anticancer drugs irrespective of the cell type, generally defines an early but already irreversible stage of apoptosis.
HL-60 (2.5×10^4) cells were seeded into 96-well plates and incubated with a test compound (COH-SR4 or COH-SR9) at various concentrations (0.5˜3 μM) for 48 hours, then caspase-3/7 or caspase-9 activity was measured with the Caspase Glo kit (Promega), respectively. Data are expressed as mean±SE from 3 independent experiments (FIG. 18A), “*” in the figure means p<0.05 when compared to the untreated control.
Treatment of COH-SR compounds also triggered release of cytochrome c (14 kDa) into the cytoplasm and cleavage of full length PARP (116 kDa) into the 89 kDa fragment, all hallmarks of cells undergoing apoptosis (FIG. 18B). HL-60 cells were treated with COH-SR4 or COH-SR9 at various concentrations (0.5 μM˜3 μM) or nothing for 24 hours. Cytochrome c (14 kDa) and cleavage of full length PARP (116 kDa) into the 89 kDa fragment were analyzed in untreated HL-60 cells and HL-60 cells treated with COH-SR4 or COH-SR9 by Western blot. Numbers below each blot represent fold increase in protein expression relative to the control as quantified by densitometry and calculated with reference to β-actin as an internal standard.

[4] = system: HMLE breast cancer cell line; assay: HMLE viability, DIMSCAN assay; type: cell-based, human; details: 3 days, 2-50 μM
Description: The effects of COH-SR compounds on breast cancer cells were investigated. Cells from 4T1 or HMLE breast cancer cell line were seeded in 96-well plates (about 2000 cells/well), allowed to proliferate for one day, treated with a COH-SR compound, doxorubicin, paclitaxel, cisplatin, or nothing (control) at a specific dose (3 wells for each treatment) and assayed for cell viability 3 days after using DIMSCAN assay. COH-SR3, COH-SR4, COH-SR9, doxorubicin, paclitaxel, and cisplatin were used at a dosage of 40 nM, 200 nM, 1 μM, 2 μM, 10 μM, or 50 μM for 4T1 breast cancer cell lines. COH-SR14 was used at a dosage of 40 nM, 200 nM, 1 μM, 2 μM, or 10 μM for 4T1 breast cancer cell lines. COH-SR3, COH-SR4, COH-SR9, doxorubicin, paclitaxel, and cisplatin were used at a dosage of 2 μM, 10 μM, or 50 μM for HMLE breast cancer cell lines. COH-SR14 was used at a dosage of 2 μM, or 10 μM for HMLE breast cancer cell lines.

HL-60 cells [5] = assay: HL-60 cell viability, MTT assay; details: for cytotoxicity and cell proliferation: 48 hours, 1-15 μM
Description: Three independent experiments were carried out with 3 duplications each, and data are shown as mean±SE.

| Compound | AMPK activation (AMPK) | superoxide production (NBT-positive cells) (HL-60 cells [1]) | surface expression of CD11b and CD14 (HL-60 cells [1]) | morphologic changes (Giemsa-Wright stain), myeloid differentiation (HL-60 cells [1]) | cells in the S phase (HL-60 cells [2]) [%] | viable cells arrested in G0/G1 phase (HL-60 cells [2]) [%] | DiOC6(3) fluorescence (mitochondrial depolarization) (HL-60 cells [3]) | cytochrome c release and PARP (HL-60 cells [3]) | caspase 3/7 and caspase 9 activity (HL-60 cells [3]) | DNA fragmentation (DNA ladder) (HL-60 cells [3]) | cytotoxic effects compared with doxorubicin, paclitaxel and cisplatin (FIG. 30) [4] | cytotoxicity and cell proliferation (HL-60 cells [5]) | IC50 (HL-60 cells [5]; Homo sapiens, HL-60, 48 h) [nM] | IC50 (HL-60 cells [5]; Homo sapiens, HL-60, 72 h) [nM] | IC50 (HL-60 cells [5]; 72 hours incubation) [nM] |
| --- | --- | --- | --- | --- | --- | --- | --- | --- | --- | --- | --- | --- | --- | --- | --- |
| O=C(Nc1cc(Cl)cc(Cl)c1)Nc1cc(Cl)cc(Cl)c1 [COH-SR4, 1,3-bis(3,5-dichlorophenyl) urea] | highest potency; also recorded: Dose-dependent AMPK activation | Induced Superoxide Production | dose-dependent increase in expression of both CD11 b and CD14 | exhibited cytoplasmic vacuolation, reduced nucleus-to-cytoplasmic ratio, and absence of prominent nucleoli | 10 | 85 | decreased overall DiOC6(3) fluorescent intensity | release of cytochrome c into the cytoplasm and PARP enzyme activation | higher caspase 3/7 and caspase 9 activity | dose-dependent DNA fragmentation | more potent cytotoxic effects | exhibited cytotoxicity and prevented cell proliferation of HL-60 leukemia cells | < 5000 | ~1700 |  |
| Cc1c(Cl)cc(NC(=O)Nc2cc(Cl)cc(Cl)c2)c(O)c1Cl [COH-SR9, 1-(3,5-dichlorophenyl)-3-(3,5-dichloro-2-hydroxy-4-methyphenyl) urea] | Dose-dependent AMPK activation | Induced Superoxide Production | dose-dependent increase in expression of both CD11 b and CD14 | exhibited cytoplasmic vacuolation, reduced nucleus-to-cytoplasmic ratio, and absence of prominent nucleoli | 13 | 85 | decreased overall DiOC6(3) fluorescent intensity | release of cytochrome c into the cytoplasm and PARP enzyme activation | higher caspase 3/7 and caspase 9 activity | dose-dependent DNA fragmentation | more potent cytotoxic effects | exhibited cytotoxicity and prevented cell proliferation of HL-60 leukemia cells |  |  | ~2500 |
